Read-outs that look alike come from different tables or passages of the source.
Assays:
[1] = test system: T1, nitric oxide synthase (NOS); experiment: Inhibition of nitric oxide synthase, fluorimetric nitrite assay in LPS-stimulated macrophage supernatants; assay type: cell-based; conditions: macrophage cell cultures
T1 construct: endogenous in cells
Description: As one aspect of the anti-oxidative potential of the novel analogs they were tested for their ability to inhibit the enzyme nitric oxide synthase (NOS). This assay can also serve as another indication of the anti-inflammatory cascade, as well as the anti-oxidative mechanisms.
The final products of NOS are Nitrite (NO2) and Nitrate (NO3). The in vitro fluorimetric assay provides an accurate method for the measurement of the Nitrite, which is the majority of NO products. The principle of the fluorimetric assay is based on the addition of DAN (2,3-diaminonaphthalene) to the aliquots of the supernatants collected from macrophage cell cultures incubated with the new analogs and stimulated with LPS. Following, NaOH was added to convert Nitrite to a fluorescent compound 1(H)-naphthtriazole. The fluorescence was measured immediately in a fluorimeter using excitation wavelength of 365 nm and an emission wavelength of 450 nm.

[2] = test system: TNFα; experiment: Inhibition of TNFα in LPS-activated macrophage cell cultures (ELISA); assay type: cell-based
Description: Specific aspects of the inflammatory response cascade are mediated by the cytokine TNFα. Inhibition of TNFα production and/or inhibition of TNFα release by the new analogs are assayed in macrophage cell cultures activated with LPS. This serves as another indication of the general anti-inflammatory potential of the novel compounds.
The method for macrophage cell culture growth is identical to the one described in PGE2 assay. Aliquots of the supernatants collected following stimulation with LPS were quantitated for TNFα by enzyme linked immunosorbent assay (ELISA) using HRP conjugated to anti-TNFα antibodies and […] for the colorimetric reaction. The peroxidase catalyzed color reaction was stopped by acidification and the absorbance at 450 nm is measured. The absorbance at this wavelength is proportional to the concentration of TNFα in the sample determined from a standard curve plotting the concentrations of TNFα standards versus their absorbance.

[3] = test system: NMDA receptor; experiment: [3H]MK-801 displacement radioligand binding, rat forebrain membranes
Description: The identification of possible recognition sites for PRS-211 analogs was carried out by measuring the ability of these PRS-211 analogs to inhibit the binding of MK-801 to rat forebrain membranes.
Brains were removed from Sprague-Dawley rats no more than 5 min after decapitation. Membrane preparations were isolated according to a procedure described previously (Eshhar et al., Brain Res. 476:57, 1989). Prior to radioligand binding measurements, endogenous glutamate present in membranes was removed from the preparation by subjecting the membranes to 3–4 successive washings in 10 mM Tris HCl pH 7.2, performed at 4° C.
The specific binding of the new analogs to NMDA receptors was determined by their ability to displace [^3H]MK-801 from NMDA receptor in rat forebrain preparations. Specifically, rat-forebrain membranes (0.1 mg) were incubated for 2 hours at room temperature with 10 nM of tritiated MK-801 and with the PRS-211 compounds at 3 doses each. Non-specific binding was determined by the use of 0.1 mM MK-801. Following the incubation, bound radioligand was separated from unbound by filtration through GF/B filters. The filters were counted in a β-counter and log of analog concentrations versus % of [^3H]MK-801 specific binding was plotted. The IC50 was calculated from this plot.
Binding of [^3H]MK-801 to membranes was carried out in the presence of 30 μM glycine and 10 μM L-glutamate. Membranes (250 μg protein) were resuspended in 50 mM tris-acetate pH 7.4 buffer and incubated with 10 nM [^3H]MK-801, either alone or in the presence of PRS-211 compounds at 0.1–100 μM concentrations for three hours at room temperature (RT). Reaction buffers used in the different radioligand binding studies contained 10% of an ethanol/Emulphor 620/deionized water mixture. The ratio (by volume) of the respective components in the mixture was 20/3/57. This mixture is required for solubilizing PRS-211 compounds at concentrations above 30 μM. Reaction volume was 1 ml. Non-specific [^3H]MK-801 binding was determined in the presence of 100 μM unlabeled MK-801.
Concentration dependence of certain PRS-211 analogs on inhibition of [^3H]MK-801 binding is illustrated in FIG. 1.

[4] = test system: transient MCAo in rats; experiment: Transient middle cerebral artery occlusion (MCAo), infarct size evaluation; assay type: in vivo; conditions: transient MCAo
Description: The middle cerebral artery is the cerebral blood vessel most susceptible to stroke in humans. In animals, coagulation, permanent ligation or permanent placement of an occluding thread ink the artery produces a permanent focal stroke affecting the MCA territory. Transient ligation or occlusion results in transient focal stroke. Both transient and permanent focal strokes result in varying degrees of edema and infarction in the affected brain regions. The ability of compounds to reduce the volumes of edema and infarction is considered a measure of their potential as anti-stroke treatment.
• a. Male rats (8/treatment group) 320–380 gr. (Harlan Israel). • b. Halothane (Rhone Poulenc France) • c. Pentobarbitone (Pental Veterinary, CTS Israel). • d. Poly-L-Lysine (Sigma, USA). • e. Silk suture material 3-0 and 4-0. • f. Nylon (Polyamid) suture material 3-0. Four cm pieces were cut and positioned in a solution of 1% Poly-L-Lysine for 1 minute and dried in an oven (60 ° C.) for 60 minutes. The tip of each piece was rounded under a flame. • g. Saline (Teva Medical). • h. Blank cremophor ethanol cosolvent (Pharmos). • i. Dexanabinol in cremophor ethanol cosolvent 50 mg/ml. (Both Dexanabinol and its vehicle were diluted in saline prior to drug administration. • j. Analogs PRS-211,092, PRS-211,095, PRS-211,128 PRS-211,132 and PRS-211,220 in cremophor ethanol cosolvent, 50 mg/ml. • k. The analogs were diluted in saline prior to drug administration. Methods Transient MCAo
a. Surgical details of the MCAO method used for testing dexanabinol analogs, are presented in Belayev, et al., (Belayev, Busto, Weizhao, and Ginsberg, Stroke 26:2313–2319, 1995) which is incorporated herein in its entirety by reference.
b. Two hours after the start of MCAo, the animals were reanesthetized with halothane, the neck wound was re-opened and the nylon thread pulled out of the Internal carotid artery (ICA). The skin wound was then closed with 3-0 silk suture material and the animals allowed to recover from the anesthesia.
c. Three sets of animals were tested. In the first test immediately (2+0 hours) before thread removal the animals were injected IV with either analogs PRS 211,095, PRS 211,128, PRS 211,132, or Dexanabinol (PRS 211,007) each at a dosage of 5 mg/kg. One group of animals was treated with 5mi/kg vehicle alone. In another group, the animals subjected to “sham” operation, the suture was passed into the ICA, as described above, but immediately withdrawn. […] Laser Doppler Flow (LDF) determined the success of MCAo—a drop of more then 50% in cerebral blood flow was considered as a sign of successful MCAO. […]
A detailed investigation of neurological performance was carried out on the first, third and the 7th day after the MCAo. […] Animals were scored according to their performance: […]

[5] = test system: tail flick model in mice; experiment: Tail flick model: analgesic effect and tolerance to morphine; assay type: in vivo, ICR male mice
Description: A mice model of acute pain, the tail flick model, was used to test the ability of compounds to prolong the analgesic activity of opioids, by preventing the development of tolerance, and their ability to reverse established tolerance.
The following animal model of acute pain was used to assess the potential analgesic effects of test compounds either alone or in combination with morphine. […] In this model the nociceptive stimulus is thermal and the latency time till the animal flicks its tail is monitored (Le Bars D., Gozariu M. & Cadden S. W., Pharmacol. Rev. 53: 597–652, 2001).
Hyperalgesia to radiant heat was assessed as follows. ICR male mice (20–30 g average body weight, Harlan, Israel) were injected with test compounds i.p. at the volume dose of 5 ml/kg. Each treatment group contained at least 6 animals. The test compounds were dissolved in Cremophor®:ethanol (70:30 weight/weight) and diluted 1:20 in saline prior to injection. Morphine HCl was directly dissolved in saline. Its vehicle was also included as control. Pain threshold was determined 30 minutes post-administration by measuring the foot-withdrawal latency defined as the time from the onset of radiant heat to foot withdrawal. The cut-off time was preset to 10 seconds in order to prevent tissue damage. […] Test compounds (5 mg/kg) and vehicle (5 ml/kg) were administered 15 minutes before morphine and pain threshold was determined 30 minutes after the first injection of morphine on day 1, 5, 8 and 10. […] Pain threshold was determined on day 1 and 10.
In each type of study, the animals were tested on given days 30 minutes after morphine injection in the tail flick apparatus (Socrel, model DS 20). Animals were gently held while their tails were located above the photoelectric cell. The tails were then illuminated (21V) at 2 cm from the distal tip and the latency time, measured in seconds, was recorded in duplicates. The results are expressed either as absolute latency time or as percent of animals that enjoyed significant analgesia as measured by the fact that their latency time is at least twice the latency time for vehicle treated animals. At the end of the study, the animals were euthanized by i.p. injection of 100 mg/kg sodium pentobarbitone.
The differences between the latency times among various treatment groups was analyzed by analysis of variance (ANOVA) followed by post-hoc Duncan test. The differences between the % of animals showing analgesia among various treatment groups was analyzed by analysis of variance (ANOVA) followed by post-hoc Fisher exact test. A value of p<0.05 is considered to be statistically significant.

[6] = displacement of [3H]MK-801, rat forebrain membranes, read-out: NMDA BINDING IC50

T1 sequence (P35228 whole entry): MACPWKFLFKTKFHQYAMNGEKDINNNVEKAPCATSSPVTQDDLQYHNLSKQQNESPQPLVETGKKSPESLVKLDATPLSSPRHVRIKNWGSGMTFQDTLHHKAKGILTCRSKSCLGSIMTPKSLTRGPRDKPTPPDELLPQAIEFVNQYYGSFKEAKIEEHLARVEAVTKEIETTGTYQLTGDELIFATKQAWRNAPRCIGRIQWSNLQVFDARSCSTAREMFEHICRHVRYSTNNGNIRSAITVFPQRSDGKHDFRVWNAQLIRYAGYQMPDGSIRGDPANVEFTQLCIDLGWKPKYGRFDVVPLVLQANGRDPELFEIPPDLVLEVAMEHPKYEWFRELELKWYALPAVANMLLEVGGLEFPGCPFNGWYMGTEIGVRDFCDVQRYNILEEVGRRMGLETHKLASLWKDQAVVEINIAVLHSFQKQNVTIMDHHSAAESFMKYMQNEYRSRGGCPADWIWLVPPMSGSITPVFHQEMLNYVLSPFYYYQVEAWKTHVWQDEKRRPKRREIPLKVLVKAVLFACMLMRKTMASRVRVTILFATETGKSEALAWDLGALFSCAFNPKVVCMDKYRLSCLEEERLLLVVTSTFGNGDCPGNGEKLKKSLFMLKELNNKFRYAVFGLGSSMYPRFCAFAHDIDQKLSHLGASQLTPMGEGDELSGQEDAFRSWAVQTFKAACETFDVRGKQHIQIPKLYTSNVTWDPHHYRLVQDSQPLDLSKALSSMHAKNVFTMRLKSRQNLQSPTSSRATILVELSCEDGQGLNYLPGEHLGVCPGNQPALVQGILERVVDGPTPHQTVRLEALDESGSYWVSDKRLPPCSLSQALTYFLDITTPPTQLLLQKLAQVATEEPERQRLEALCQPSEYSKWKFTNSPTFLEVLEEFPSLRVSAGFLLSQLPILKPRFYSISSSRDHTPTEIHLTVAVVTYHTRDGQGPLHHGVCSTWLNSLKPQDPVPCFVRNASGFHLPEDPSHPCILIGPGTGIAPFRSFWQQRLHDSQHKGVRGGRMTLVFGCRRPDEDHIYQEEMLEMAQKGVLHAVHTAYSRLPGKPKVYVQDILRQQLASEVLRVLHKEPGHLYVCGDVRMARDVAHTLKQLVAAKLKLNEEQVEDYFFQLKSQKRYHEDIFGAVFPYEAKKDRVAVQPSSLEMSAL

## CCCCCCC(C)(C)c1cc(O)c2c(c1)OC(C)(C)[C@H]1CC=C(CN3CCC(C)CC3)CC21 (single isomer, unassigned; (+)) [211,251-000]
[1]
  inhibition at 10 µM: 37%
[2]
  inhibition at 10 µM: 0%
[3]
  NMDA receptor binding / affinity (in words): do not exhibit substantial NMDA receptor binding
[3]; [6]
  IC50: > 100 µM

## CCCCCCC(C)(C)c1cc(O)c2c(c1)OC(C)(C)[C@H]1CC=C(CN3CCC(N4CCCCC4)CC3)CC21 (single isomer, unassigned; (+)) [211,257-000]
[1]
  inhibition at 10 µM: 39%
[2]
  inhibition at 10 µM: 10%
[3]
  NMDA receptor binding / affinity (in words): do not exhibit substantial NMDA receptor binding
[3]; [6]
  IC50: > 100 µM

## CCCCCCC(C)(C)c1cc(O)c2c(c1)OC(C)(C)[C@H]1CC=C(CC#N)C[C@H]21 [211,006-000]
[1]
  inhibition at 10 µM: 19%

## CCCCCCC(C)(C)c1cc(O)c2c(c1)OC(C)(C)[C@H]1CC=C(C[S+](C)[O-])C[C@H]21 (stereo partly drawn) [211,041-000]
[1]
  inhibition at 10 µM: 72%

## CCCCCCC(C)(C)c1cc(O)c2c(c1)OC(C)(C)[C@H]1CC=C(Cc3ccccc3)C[C@H]21 [211,119-000]
[1]
  inhibition at 10 µM: 0%

## CCCCCCC(C)(C)c1cc(O)c2c(c1)OC(C)(C)[C@H]1CC=C(CN3CCCC3)C[C@H]21 [211,128-000]
[1]
  inhibition at 10 µM: 27%
[4]
  function, reduction of mortality and brain morphometry: inactive
[3]
  NMDA receptor binding / affinity (in words): no detectable affinity
[3]; [6]
  IC50: > 20 µM
[3]; rat forebrain membranes, read-out: mean IC50 of [3H]MK-801 binding (FIG. 2)
  IC50: > 20 µM

## CCCCCCC(C)(C)c1cc(O)c2c(c1)OC(C)(C)[C@H]1CC=C(CN3CCOCC3)C[C@H]21 [211,132-000]
[1]
  inhibition at 10 µM: 40%

## CCCCCCC(C)(C)c1cc(O)c2c(c1)OC(C)(C)[C@H]1CC=C(CN3CCNCC3)CC21 (stereo partly drawn) [211,133-000]
[3]; [6]
  IC50: > 100 µM

## CCCCCCC(C)(C)c1cc(O)c2c(c1)OC(C)(C)[C@H]1CC=C(CN3CCNC(C)C3)CC21 (stereo partly drawn) [211,134-000]
[3]; [6]
  IC50: > 100 µM

## CCCCCCC(C)(C)c1cc(O)c2c(c1)OC(C)(C)[C@H]1CC=C(CN3CC=CCC3)C[C@H]21 [211,145-000]
[1]
  inhibition at 10 µM: 60%

## CCCCCCC(C)(C)c1cc(O)c2c(c1)OC(C)(C)[C@H]1CC=C(CN3CCCCC3)C[C@H]21 [211,159-000]
[1]
  inhibition at 10 µM: 27%
[3]; [6]
  IC50: > 20 µM

## CCCCCCC(C)(C)c1cc(O)c2c(c1)OC(C)(C)[C@H]1CC=C(CN3CCN=C3SC)C[C@H]21 [211,204-000]
[1]
  inhibition at 10 µM: 85%

## CCCCCCC(C)(C)c1cc(O)c2c(c1)OC(C)(C)[C@H]1CC=C(COCC(O)CO)C[C@H]21 (stereo partly drawn) [211,211-000]
[1]
  inhibition at 10 µM: 0%

## CCCCCCC(C)(C)c1cc(O)c2c(c1)OC(C)(C)[C@H]1CC=C(CN3CC=CC3)C[C@H]21 [211,212-000]
[1]
  inhibition at 10 µM: 0%

## COc1ccc2c(c1)[C@]13CCCC[C@@H]1[C@H](C2)N(C)CC3 [dextromethorphan, reference compound]
[5]; in combination with morphine from day 11, tested day 12, 15, 17, PRS-211,220 5 mg/kg, dextromethorphan 20 mg/kg
  reversal of established tolerance to morphine: statistically undistinguishable from morphine alone

## CN1CC[C@]23c4c5ccc(O)c4O[C@H]2[C@@H](O)C=C[C@H]3[C@H]1C5 [morphine, reference compound]
[5]; 5 mg/kg, plain analgesic study, 30 minutes post-administration
  latency time: 7.5 s

— patent US7235584B2, “Non-psychotropic cannabinoids” (Pharmos Corporation, priority 2000, dated 2007)
